According to patent US9597407B2, “Targeted antimicrobial moieties” (C3 Jian, Inc., priority 2009, dated 2017):
“Also recorded” adds a separate entry of the source.

Key:
[1] = system: bacteria; experiment: Binding of targeting peptides to microorganisms (Table 3); details: preferably 1x PBS; for Target(s) (microorganism bound by the targeting peptide) / Target(s) (microorganisms bound by the targeting peptide): peptide binding in aqueous buffers that varied depending on peptide solubility; for Target(s): microorganism bound by the targeting peptide, binding in aqueous buffers chosen by peptide solubility
[2] = system: microorganisms; experiment: Morphology, biofilm and growth disruption by peptides (Table 5); format: cell-based; parameters: key: A: Peptide aggregates; B: Less hyphal formation; Clumps; Diffuse clumps and small polyps; F: Diffuse growth; H: Thin; I: Growth inhibition; Microcolony formation; Rippled; Small polyps; Thick; W: Halo formation on top, microlonies on bottom
Text: In certain embodiments peptides that induce alterations in phenotype or other biological activities can also be used as antimicrobial effector moieties.

Substance: PF-C131 (QWIVAKREIRMHIYCHISVIHVIIFFG; Peptide with targeting and/or antimicrobial activity)
- Target(s) (microorganism bound by the targeting peptide) [1]: A. naeslundii; also recorded: F. nucleatum; also recorded: P. gingivalis; also recorded: S. mutans
- Organism, effect (morphology, biofilm and growth disruption) ([2]; F. nucleatum): F. nucleatum (T)
- Organism, effect (morphology, biofilm and growth disruption) ([2]; S. mutans): S. mutans (F)

Substance: PF-690 (chain 1 MIPLAGDPVSSHRTVEFGVLGTYLVSGGSL; chain 2 MIPLAGDPVSSHRTVEFGVLGTYLVSGGSL; Peptide with targeting and/or antimicrobial activity)
- Target(s) (microorganism bound by the targeting peptide) [1]: Mycobacteria spp
- Organism, effect (morphology, biofilm and growth disruption) ([2]; E. faecalis): E. faecalis (R)
- Organism, effect (morphology, biofilm and growth disruption) ([2]; MRSA): MRSA (R)
- Organism, effect (morphology, biofilm and growth disruption) ([2]; S. epidermidis): S. epidermidis (R)
- Organism, effect (morphology, biofilm and growth disruption) ([2]; S. pneumoniae): S. pneumoniae (M)

Substance: MKRRRCNWCGKLFYLEEKSKEAYCCKECRKKAKKVKK [PF-307]
- Target(s) [1]: S. epidermidis; also recorded: B. subtilis; also recorded: B. fragilis; also recorded: C. difficile
- Organism, effect ([2]; B. subtilis): B. subtilis (H)
- Organism, effect ([2]; C. albicans): C. albicans (B)
- Organism, effect ([2]; S. epidermidis): S. epidermidis (T)

Substance: PF-404 (VLYFQATVV; Peptide with targeting and/or antimicrobial activity)
- Target(s) (microorganisms bound by the targeting peptide) [1]: S. epidermidis; also recorded: E. coli; also recorded: P. aeruginosa; also recorded: E. faecalis; also recorded: C. jeikeium; also recorded: C. jejuni
- Organism, effect ([2]; MRSA): MRSA (M)
- Organism, effect ([2]; S. epidermidis): S. epidermidis (M)

Substance: PF-C139 (LLASHPERLSLGVFFVYRVLHLLLENT; Peptide with targeting and/or antimicrobial activity)
- Target(s) (microorganism bound by the targeting peptide) [1]: A. naeslundii; also recorded: F. nucleatum; also recorded: P. gingivalis; also recorded: S. mutans; also recorded: T. denticola
- Organism, effect (morphology, biofilm and growth disruption) ([2]; S. mutans): S. mutans (F)

Substance: PF-654 (chain 1 LSGRLAGRR; chain 2 LSGRLAGRR; Peptide with targeting and/or antimicrobial activity)
- Target(s) (microorganism bound by the targeting peptide) [1]: Mycobacteria spp
- Organism, effect (morphology, biofilm and growth disruption) ([2]; C. albicans): C. albicans (B)
- Organism, effect (morphology, biofilm and growth disruption) ([2]; MRSA): MRSA (R)
- Organism, effect (morphology, biofilm and growth disruption) ([2]; S. pneumoniae): S. pneumoniae (A)

Substance: SIGSMIGMYSFRHKTKHIKFTFGIPFILFLQFLLVYFYILK [PF-319]
- Target(s) [1]: S. epidermidis; also recorded: B. subtilis; also recorded: C. difficile
- Organism, effect ([2]; B. subtilis): B. subtilis (C)
- Organism, effect ([2]; S. epidermidis): S. epidermidis (C)

Substance: PF-074 (RDIHPIYFMTKD; Peptide with targeting and/or antimicrobial activity)
- Target(s) [1]: S. epidermidis and M. luteus and MRSA
- Organism, effect ([2]; MRSA): MRSA (M)
- Organism, effect ([2]; S. epidermidis): S. epidermidis (D)

Substance: PF-153 (GILARADCSQIA; Peptide with targeting and/or antimicrobial activity)
- Target(s) [1]: M. luteus and P. mirabilis and E. coli and MRSA
- Organism, effect ([2]; C. jeikeium): C. jeikeium (C)
- Organism, effect ([2]; S. epidermidis): S. epidermidis (M)

Substance: VLPFPAIPLSRRRACVAAPRPRSRQRAS [PF-168]
- Target(s) [1]: S. epidermidis and M. luteus and E. coli and C. albicans and MRSA and C. jeikeium and C. jejuni
- Organism, effect ([2]; MRSA): MRSA (I)
- Organism, effect ([2]; P. aeruginosa): P. aeruginosa (H)

Substance: GNVHPESDFHNLIQFIKTFLYFTIFFKYFL [PF-C290]
- Target(s) (microorganism bound by the targeting peptide) [1]: A. naeslundii; also recorded: F. nucleatum; also recorded: P. gingivalis; also recorded: S. mutans; also recorded: T. denticola
- Organism, effect (morphology, biofilm and growth disruption) ([2]; S. mutans): S. mutans (F)

Substance: PF-414 (LLNKKLE; Peptide with targeting and/or antimicrobial activity)
- Target(s) (microorganisms bound by the targeting peptide) [1]: E. coli; also recorded: C. albicans; also recorded: C. jeikeium
- Organism, effect ([2]; S. pneumoniae): S. pneumoniae (H)

Substance: PF-144 (RSGQPVGRPSRRAWLR; Peptide with targeting and/or antimicrobial activity)
- Target(s) [1]: S. epidermidis and M. luteus and E. coli and C. albicans and MRSA and S. pneumoniae and E. faecalis and C. jeikeium
- Organism, effect ([2]; S. pneumoniae): S. pneumoniae (H)

Substance: PF-680 (chain 1 ADPHPTTGI; chain 2 ADPHPTTGI; Peptide with targeting and/or antimicrobial activity)
- Target(s) (microorganism bound by the targeting peptide) [1]: Mycobacteria spp
- Organism, effect (morphology, biofilm and growth disruption) ([2]; MRSA): MRSA (R)
